Laboratory results reported in patent publication US11932874B2, “Method for culturing mesenchymal stem cells using gamma-irradiated serum” (R Bio CO., Ltd., priority 2018, dated 2024).

Experiments:
Type in all cases: cell-based
[1] = tested on: human adipose tissue-derived stem cells; test: Adhesion of stem cells cultured in 25 kGy gamma-irradiated FBS: time at which stem cell density reached 90% (Example 4); details: 25 kGy FBS, passage 0 cells
Method: In the same manner as described in Example 3 above, fetal bovine serum (FBS) was irradiated with 25 kGy of gamma radiation, thereby preparing gamma-irradiated FBS. Vitamin C (ascorbic acid; L-Ascorbic Acid 2-phosphate) was added to the FBS which was then irradiated with 25 kGy of gamma irradiation, thereby preparing gamma-irradiated FBS pretreated with vitamin C. The vitamin C was added to the FBS at a concentration of 1%. Then, the human adipose tissue-derived stem cells at passage 0, isolated in Example 1, were thawed and inoculated into T25 flasks at a concentration of 1.7×10^3 cells/T25 flask, and the inoculated cells were cultured with AMSC+ culture medium (R-Bio Co., Ltd.) containing the prepared gamma-irradiated FBS or gamma-irradiated FBS pretreated with vitamin C at a concentration of 5% in a CO2 incubator at 37° C. for 2 days. After 2 days of culture, the medium was removed and replaced with AMSC+ culture medium containing 5% gamma-irradiated FBS (a negative control group), medium obtained by adding vitamin C to AMSC+ culture medium containing 5% gamma-irradiated FBS (a vitamin C post-treatment test group), or AMSC+ culture medium containing 5% gamma-irradiated FBS pretreated with vitamin C (a vitamin C pre-treatment test group). Vitamin C was added to the culture medium or FBS at a concentration of 1%. A positive control group was also prepared as described in Examples 2 and 3 above. For each control group and the test group, examination was performed of the time at which the density of the stem cells reached 90% so that these cells could be sub-cultured.

[2] = tested on: human adipose tissue-derived stem cells; test: Differentiation into adipocytes, oil red O staining (Example 7); details: 30 KGy gamma radiation, post-treated with 1% vitamin C, passage 4
Method: (§1) For the positive control group and vitamin C post-treatment test group of Example 6, the purity and characteristics of the stem cells at passage 4 were examined. The purity of the stem cells was examined by analyzing the expression of CD markers using FACS (FIG. 12 and Table 10), and the characteristics of the stem cells were examined by analyzing differentiation into adipocytes, osteocytes and chondrocytes (FIGS. 13 to 15). Differentiation into adipocytes was analyzed by oil red 0 staining according to the Sigma-Aldrich protocol, and differentiation into osteocytes was analyzed by alizarin red S staining according to the Lifeline Cell Tech's protocol, and differentiation into chondrocytes was analyzed by TSP2 ELISA.

[3] = tested on: human adipose tissue-derived stem cells; test: Differentiation into chondrocytes, TSP2 ELISA (Example 7); details: 30 KGy gamma radiation, post-treated with 1% vitamin C, passage 4
Method: as §1

[4] = tested on: human adipose tissue-derived stem cells; test: Culture of stem cells in AMSC+ medium with 25 kGy gamma-irradiated FBS and vitamin C post-treatment (Example 2): cell number, doubling time; details: for Cell No. / Doubling time: Ad-MSC (P4)
Method: Fetal bovine serum (FBS) was irradiated with 25 kGy of gamma radiation (Soyagreentec Co., Ltd.), thereby preparing gamma-irradiated FBS. Then, the human adipose tissue-derived stem cells at passage 3, isolated in Example 1, were thawed and inoculated into T75 flasks at a concentration of 0.5×10^6 cells/T75 flask, and the inoculated cells were cultured with AMSC+ culture medium (R-Bio Co., Ltd.) containing the prepared gamma-irradiated FBS at a concentration of 5% in a CO2 incubator at 37° C. for 2 days. After 2 days of culture, the medium was removed and replaced with either AMSC+ culture medium containing 5% gamma-irradiated FBS (a negative control group) or medium obtained by adding vitamin C (ascorbic acid; L-Ascorbic Acid 2-phosphate) to AMSC+ culture medium containing 5% gamma-irradiated FBS (a vitamin C post-treatment test group). Vitamin C was added to the culture medium at concentrations of 0.025, 0.05, 0.1 and 1%. The AMSC+ culture medium (R-Bio Co., Ltd.) is a 1:1 mixture of KSFM-P medium (containing Defined Keratinocyte-SFM, 0.2 mM L-ascorbic acid 2-phosphate, 5 μg/ml insulin, 2 mM N-acetyl-L-cysteine, 0.09 mM calcium chloride, 74 ng/ml hydrocortisone and 5% FBS) and DMEM medium. After 4 days of culture, the cell proliferation rate and doubling time of the cells were examined. The viability of the cells was examined with a microscope and a hemocytometer, and the doubling time was calculated using the following equation: Doubling Time=duration×log(2)/log(final concentration)−log(initial concentration). [Equation 1] A positive control group was cultured using 5% normal FBS (which was not irradiated with gamma radiation) and AMSC+ culture medium in the same manner as the negative control group and the test group.

[5] = tested on: human adipose tissue-derived stem cells; test: Culture of stem cells using 25 kGy gamma-irradiated FBS with vitamin C pre- or post-treatment (Example 3): cell number, doubling time; details: for Cell No. / Doubling time: Ad-MSC (P4), 4 days of culture
Method: After 4 days of culture, the cell proliferation rate and doubling time of the cells were examined. The viability of the cells was examined with a microscope and a hemocytometer, and the doubling time was calculated using the following equation: Doubling Time=duration×log(2)/log(final concentration)−log(initial concentration). [Equation 1] Fetal bovine serum (FBS) was irradiated with 25 kGy of gamma radiation, thereby preparing gamma-irradiated FBS. Vitamin C (ascorbic acid; L-Ascorbic Acid 2-phosphate) was added to the FBS which was then irradiated with 25 kGy of gamma irradiation, thereby preparing gamma-irradiated FBS pretreated with vitamin C. The vitamin C was added to the FBS at a concentration of 0.1% or 1%. Then, the human adipose tissue-derived stem cells at passage 3, isolated in Example 1, were thawed and inoculated into T75 flasks at a concentration of 0.5×10^6 cells/T75 flask, and the inoculated cells were cultured with AMSC+ culture medium (R-Bio Co., Ltd.) containing the prepared gamma-irradiated FBS or gamma-irradiated FBS pretreated with vitamin C at a concentration of 5% in a CO2 incubator at 37° C. for 2 days. After 2 days of culture, the medium was removed and replaced with AMSC+ culture medium containing 5% gamma-irradiated FBS (a negative control group), medium obtained by adding vitamin C to AMSC+ culture medium containing 5% gamma-irradiated FBS (a vitamin C post-treatment test group), or AMSC+ culture medium containing 5% gamma-irradiated FBS pretreated with vitamin C (a vitamin C pre-treatment test group). Vitamin C was added to the culture medium or FBS at a concentration of 0.1 or 1%. After 4 days of culture, the cell proliferation rate and doubling time of the cells were examined in the same manner as described in Example 2 above. A positive control group was also prepared as described in Example 2 above.

[6] = 25 KGy FBS + 0.025% AA2P added to medium, 4 days of culture
[7] = 25 KGy FBS + 0.05% AA2P added to medium, 4 days of culture
[8] = 25 KGy FBS + 0.1% AA2P added to medium, 4 days of culture
[9] = 25 KGy FBS + 1% AA2P added to medium, 4 days of culture
[10] = vitamin C post-treatment, 25 kGy FBS, 4 days of culture
[11] = 0.1% AA2P post-treatment + 25 KGy
[12] = 0.1% AA2P pre-treatment + 25 KGy
[13] = 1% AA2P post-treatment + 25 KGy

## O=C1O[C@H]([C@@H](O)CO)C(O)=C1OP(=O)(O)O [AA2P, L-Ascorbic Acid 2-phosphate]
[1]; Post-treatment with 1% Vit. C
  Density (90%): day of culture on which stem cell density reached 90%: Day 10
[1]; Post-treatment with 1% Vit. C, listed as vitamin C
  Density (90%): day of culture on which stem cell density reached 90%: 13 days
[1]; Pre-treatment with 1% Vit. C
  Density (90%): day of culture on which stem cell density reached 90%: Day 13
[1]; Pre-treatment with 1% Vit. C, listed as vitamin C
  Density (90%): day of culture on which stem cell density reached 90%: 10 days
[2]
  differentiation into adipocytes versus positive control group: did not differ from those of the positive control group
[3]
  differentiation into chondrocytes versus positive control group: did not differ from those of the positive control group
[4]; [6]
  Cell No.: 10.035 ×10^6 cells
  Doubling time: 31.33 h
[4]; [7]
  Cell No.: 9.5 ×10^6 cells
  Doubling time: 32.16 h
[4]; [8]
  Cell No.: 10.6 ×10^6 cells
  Doubling time: 30.54 h
[4]; [9]
  Cell No.: 12 ×10^6 cells
  Doubling time: 28.9 h
[4]; [10]
  cell number versus negative control group: increased compared to the negative control group
  doubling time versus negative control group: decreased compared to the negative control group
[4]; vitamin C post-treatment, 25 kGy FBS, days 0, 1 and 4 (FIG. 1)
  microscope observation of stem cells: levels similar to those of the positive control group
[5]; [11]
  Cell No.: 10.6 ×10^6 cells
  Doubling time: 21 h
[5]; [12]
  Cell No.: 10.2 ×10^6 cells
  Doubling time: 21 h
[5]; [13]
  Cell No.: 14.0 ×10^6 cells
  Doubling time: 19 h
[5]; 1% AA2P pre-treatment + 25 KGy
  Cell No.: 10.0 ×10^6 cells
  Doubling time: 21 h
[5]; vitamin C post-treatment and pre-treatment test groups, 25 kGy FBS, 4 days
  cell number and doubling time versus positive control group: increased to the levels of the positive control group
[5]; vitamin C post-treatment and pre-treatment test groups, 25 kGy FBS, day 4 (FIG. 3)
  microscope observation of stem cells: levels similar to those of the positive control group
